“Also recorded” adds a separate entry of the source.
Legend:
[1] = tested on: 3T3-L1 and L1-UCP2 cells; experiment: Adipocyte apoptosis in 3T3-L1 and L1-UCP2 cells; type: cell-based
Method: 3T3-L1 preadipocytes were incubated at a density of 8000 cells/cm2 (10 cm2 dish) and grown in Dulbecco's modified Eagle's medium (DMEM) containing 10% FBS and antibiotics (adipocyte medium) at 37° C. in 5% CO2 in air. Confluent preadipocytes were induced to differentiate with a standard differentiation medium consisting of DMEM-F10 (1:1, vol/vol) medium supplemented with 1% FBS, 1 μM dexamethasone, IBMX (0.5 mM), and antibiotics (1% penicillin-streptomycin). Preadipocytes were maintained in this differentiation medium for 3 days and subsequently cultured in adipocyte medium. Cultures were re-fed every 2-3 days to allow 90% cells to reach full differentiation before they were chemically treated. Chemicals were freshly diluted in adipocyte medium before treatment. […] Cell viability was measured via trypan blue exclusion. […]
(§1) Adipocyte caspase-1, caspase-3, Bcl-2, and Bax mRNA were quantitatively measured using a Smart Cycler Real Time PCR System (Cepheid, Sunnyvale, Calif.) with a TaqMan 1000 Core Reagent Kit (Applied Biosystems, Branchburg, N.J.). […] Reactions of quantitative RT-PCR for standards and unknown samples were Cepheid, Sunnyvale, Calif.) and TaqMan Real Time PCR Core Kit. The mRNA quantitation for each sample was further normalized using the corresponding 18 s quantitation, with a forward primer, 5′-[…]-3′, and a reverse primer, 5′-[…]-3′.

[2] = tested on: 3T3-L1 and UCP2-transfected 3T3-L1 cells; experiment: ATP production (microplate luminometer) in adipocytes; type: cell-based; settings: 4 h
Method: Adipocytes were incubated with adipocyte medium for 4 h with or without 1α,25-(OH)2-D3. ATP levels were measured using ENLITEN Total ATP Rapid Biocontamination Detection Kit (Promega, Madison, […].) according to the manufacturer's instructions. Cellular ATP was extracted as described previously and measured using a microplate luminometer (Labsystem, Helsinki, Finland). The integration time of the luminometer was set at 1 s with normal gain. Measurement of cytosolic Ca^2+ ([Ca^2+]c) and mitochondrial calcium([Ca^2+]m)

[3] = tested on: 3T3-L1 and UCP2-transfected 3T3-L1 adipocytes; experiment: Cytosolic/intracellular calcium (fura-2 dual-wavelength fluorescence imaging) in adipocytes; type: cell-based
[4] = tested on: Bcl-2/Bax; experiment: Bcl-2/Bax expression ratio by real-time PCR in 3T3-L1 and UCP2-transfected 3T3-L1 adipocytes; type: cell-based; settings: 24 h, P<0.01
Method: (§2) 3T3-L1 preadipocytes were incubated at a density of 8000 cells/cm2 (10 cm2 dish) and grown in Dulbecco's modified Eagle's medium (DMEM) containing 10% FBS and antibiotics (adipocyte medium) at 37° C. in 5% CO2 in air. Confluent preadipocytes were induced to differentiate with a standard differentiation medium consisting of DMEM-F10 (1:1, vol/vol) medium supplemented with 1% FBS, 1 μM dexamethasone, IBMX (0.5 mM), and antibiotics (1% penicillin-streptomycin). Preadipocytes were maintained in this differentiation medium for 3 days and subsequently cultured in adipocyte medium. Cultures were re-fed every 2-3 days to allow 90% cells to reach full differentiation before they were chemically treated. Chemicals were freshly diluted in adipocyte medium before treatment. Cells were washed with fresh adipocyte medium, re-fed with medium containing the different treatments, and incubated at 37° C. in 5% CO2 in air before analysis. Cell viability was measured via trypan blue exclusion.
(§3) UCP2 full-length cDNAs were amplified by […] using mRNAs isolated from mouse white adipose tissues. The PCR primers for this amplification are shown as follows: UCP2 forward, 5′-[…]-3′, reverse, 5′-[…]-3′. The PCR products were then subcloned into pcDNA4/His expression vectors. The linearized constructs were transfected into 3T3-L1 preadipocytes using lipofectamine plus standard protocol (Invitrogen, Carlsbad, Calif.). After 48 h of transfection, cells were split and cultured in selective medium containing 400 ug/ml zeocin for the selection of resistant colonies. […]
as §1

[5] = tested on: caspase-1; experiment: Caspase-1 mRNA expression by real-time PCR in 3T3-L1 and UCP2-transfected 3T3-L1 adipocytes; type: cell-based; settings: 24 h, control and UCP2-transfected 3T3-L1 cells
Method: as §2, §3, §1

[6] = tested on: UCP2; experiment: UCP2 expression in 3T3-L1 cells (western blot, UCP2/actin); type: cell-based, mouse; settings: 3T3-L1 cells, BK8644
Method: Duplex siRNA corresponding to UCP2 gene was designed and chemically synthesized by Invitrogen. The following gene-specific sequences were used successfully: Si-UCP2 sense 5′-GCCUCUACGACUCUGUCAA-3′ and antisense […]. Transfection of siRNA was performed with Oligofectamine™ reagent (Invitrogen Life Technologies, CA) in 6-well plates. Briefly, Oligofectamine diluted in DMEM was applied to the duplex siRNA mixture, and the formulation was continued for 20 min to allow the Oligofectamine-oligonucleotide complex to form. Per well, 800 μl of plating medium and 10 ul of 20 μM duplex siRNA duplex siRNA formulated with 4 μl of Oligofectamine were applied in a final volume of 1 ml. Cells were then incubated at […] in a CO2 incubator for 4 hrs. […]
Adipocytes were harvested and sonicated in a homogenization buffer containing 50 mM Tris-HCl (PH 7.4), 250 mM sucrose, 1 mM EDTA, 1 mM dithiothreitol, 1% (v/v) Triton X, 10% protease cocktail (Sigma). […] Homogenate intrafranatant protein from equal numbers of cells (determined via protein quantitation using Bradford method as described previously) was boiled in Laemmli sample buffer and subject to 10% SDS-polyacrylamide gel electrophoresis (PAGE). […] Visualization was detected with chemiluminescence reagent, using the Western Blotting Luminal Reagent (Santa Cruz Biotechnology, CA).

caspase-1 expression ([5]; high dose 100 nM, P<0.01) | caspase-1 expression ([5]; physiological low doses 0.1 nM, 1 nM, 5 nM, 10 nM, P<0.05) | SMILES | apoptosis ([1]; high dose (100 nM), 3T3-L1 and L1-UCP2 cells, P<0.05) | UCP2 overexpression-induced apoptosis ([1]; physiological doses (0.1-10 nM), L1-UCP2 cells, P<0.01) | ATP production ([2]; high dose (100 nM), P<0.05) | ATP production ([2]; low dose, P<0.01) | cytosolic calcium levels ([3]; 1 nM, 5 nM, 10 nM, 100 nM, control and UCP2-transfected cells) | increase in calcium influx, high dose relative to the lower doses ([3]; high dose (100 nM) vs lower doses) [fold] | Bcl-2/Bax expression ratio ([4]; high dose 100 nM, control and UCP2-transfected 3T3-L1 cells) | Bcl-2/Bax expression ratio ([4]; lower levels (0.1-10 nM)) | effect on UCP2 expression [6] | adipocyte Ca2+ influx / [Ca2+]i ([3]; 1 nM-100 nM, 3T3-L1 cells) | increases in [Ca2+]i ([3]; 3T3-L1 cells)
stimulated | inhibited | C=C1/C(=C\C=C2/CCC[C@]3(C)[C@@H]([C@H](C)CCCC(C)(C)O)CC[C@@H]23)C[C@@H](O)C[C@@H]1O [1α,25-(OH)2-D3, 1α,25-dihydroxyvitamin D3] | stimulated | protected | inhibited | markedly increased | dose-dependent increase; also recorded: dose-dependently | 10 | significant decrease | dose-dependent increase | – | – | –
– | – | COC(=O)C1=C(C)NC(C)=C([N+](=O)[O-])C1c1ccccc1C(F)(F)F (stereo not shown) [Bay K 8644] | – | – | – | – | – | – | – | – | no effect | dose-dependent | 3-4 fold

From patent US20070286886A1, “Materials And Methods For Inducing Apoptosis In Adipocytes” (University of Tennessee Research Foundation, priority 2004, published 2007)
